One assay addresses T1, Monoamineoxidase B type human-derived enzyme (Homo sapiens, UniProt P27338).
T1 sequence (P27338 1-520): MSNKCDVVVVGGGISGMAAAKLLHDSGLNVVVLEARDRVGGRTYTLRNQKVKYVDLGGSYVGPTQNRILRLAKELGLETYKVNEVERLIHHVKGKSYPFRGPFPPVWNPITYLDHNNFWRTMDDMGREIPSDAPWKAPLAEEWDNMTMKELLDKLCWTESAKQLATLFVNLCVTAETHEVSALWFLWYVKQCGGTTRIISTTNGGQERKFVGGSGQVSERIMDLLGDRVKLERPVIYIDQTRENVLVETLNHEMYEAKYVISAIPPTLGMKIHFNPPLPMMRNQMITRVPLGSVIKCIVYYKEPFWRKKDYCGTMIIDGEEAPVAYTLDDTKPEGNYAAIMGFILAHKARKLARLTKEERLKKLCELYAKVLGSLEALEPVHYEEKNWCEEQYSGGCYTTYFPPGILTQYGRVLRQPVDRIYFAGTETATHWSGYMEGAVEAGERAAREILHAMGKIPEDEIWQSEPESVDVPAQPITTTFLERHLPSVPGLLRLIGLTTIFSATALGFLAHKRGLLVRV
Briefly: Inhibitory effects on the activity of MAO-B (Amplex Red fluorescence, benzylamine substrate). Format: biochemical. Particulars: read-out: Inhibitory effects (%) on the activity of MAO-B. How it is done: Monoamineoxidase A or B type human-derived enzyme (5 mg/ml) was each diluted with 0.05 M sodium phosphate buffer (pH 7.4) to yield a dilution of 1:200, and then 100 μl of an enzyme buffer containing 2 μl of a compound 1 solution at the corresponding concentration was placed in a test plate (flat-bottom) and incubated for 30 minutes.
100 μl of a working buffer containing 400 μM of Amplex Red reagent, 2 U/ml horseradish peroxidase, and 2 mM substrate (tyramine for MAO-A and benzylamine for MAO-B) in 0.05 M sodium phosphate buffer (pH 7.4) was mixed with a pre-incubated enzyme buffer at 1:1 and measured using fluorescence (EX: 563 nm & EM: 587 nm) for 30 minutes.
With `NC(=O)OCc1cc(-c2ccc(OCCCC(F)(F)F)cc2)no1` [Example 59, carbamic acid 3-[4-(4,4,4-trifluoro-butoxy)-phenyl]-isoxazol-5-ylmethyl ester], the inhibition at 0.01 µM is 97.4%.

For `NC(=O)OCc1nc(-c2ccc(OCc3ccccc3)cc2)ns1` [Example 4, carbamic acid 3-(4-benzyloxy-phenyl)-[1,2,4]thiadiazol-5-ylmethyl ester], the inhibition at 0.01 µM stood at 92%.

For the molecule `NC(=O)OCCCOc1ccc(-c2cc(COC(N)=O)on2)cc1` [Example 52, carbamic acid 3-[4-(5-carbamoyloxymethyl-isoxazol-3-yl)-phenoxy]-propyl ester], the inhibition at 0.01 µM was determined as 26.6%.

Still in this assay, the particulars now being: treatment concentration 10 nM; read-out: Inhibitory effects (%) on the activity of MAO-B.
With `NCCCNC(=O)OCc1cc(-c2ccc(OCc3ccccc3)cc2)no1` [Example 130, (3-amino-propyl)-carbamic acid 3-(4-benzyloxy-phenyl)-isoxazol-5-ylmethyl ester], the inhibition at 0.01 µM was found to be 52.9%.

For `NC(=O)OCc1cc(-c2ccc(OCc3ccc(Cl)cc3)cc2)no1` [Example 22, carbamic acid 3-[4-(4-chloro-benzyloxy)-phenyl]-isoxazol-5-ylmethyl ester], the inhibition at 0.01 µM is 86%.

With `NC(=O)OCc1cc(-c2ccc(OCc3ccccc3)c(F)c2)no1` [Example 8, carbamic acid 3-(4-benzyloxy-3-fluoro-phenyl)-isoxazol-5-ylmethyl ester], the inhibition at 0.01 µM was determined as 72.7%.

Regarding `NC(=O)OCc1cc(-c2ccc(OCc3c(F)cccc3Cl)cc2)no1` [Example 199, Carbamic acid 3-[4-(2-chloro-6-fluorobenzyloxy)-phenyl]-isoxazol-5-ylmethyl ester], the inhibition at 0.01 µM came to 83.2%.

On to `NC(=O)OCc1cc(-c2ccc(OCc3cccc([N+](=O)[O-])c3)cc2)no1` [Example 26, carbamic acid 3-[4-(3-nitro-benzyloxy)-phenyl]-isoxazol-5-ylmethyl ester], for which the inhibition at 0.01 µM came to 87.3%.

With `COc1cccc(CNc2ccc(-c3cc(COC(N)=O)on3)cc2)c1` [Example 105, Carbamic acid 3-[4-(3-methoxy-benzylamino)-phenyl]-isoxazol-5-ylmethyl ester], the inhibition at 0.01 µM came out at 53.7%.

In the case of `NC(=O)OCc1cc(-c2ccc(NCc3cccc(F)c3F)cc2)no1` [Example 80, Carbamic acid 3-[4-(2,3-difluoro-benzylamino)-phenyl]-isoxazol-5-ylmethyl ester], the inhibition at 0.01 µM amounted to 74.5%.

For `Cc1ccc(CNc2ccc(-c3cc(COC(N)=O)on3)cc2)c(C)c1` [Example 103, Carbamic acid 3-[4-(2,4-dimethyl-benzylamino)-phenyl]-isoxazol-5-ylmethyl ester], the inhibition at 0.01 µM was 20.7%.

For the molecule `NC(=O)OCc1cc(-c2ccc(OCc3ccc(F)c(F)c3)cc2)no1` [Example 17, carbamic acid 3-[4-(3,4-difluoro-benzyloxy)-phenyl]-isoxazol-5-ylmethyl ester], the inhibition at 0.01 µM worked out at 96.8%.

For the molecule `Cc1noc(C)c1CNc1ccc(-c2cc(COC(N)=O)on2)cc1` [Example 112, carbamic acid 3-{4-[(3,5-dimethyl-isoxazol-4-ylmethyl)-amino]-phenyl}-isoxazol-5-ylmethyl ester], the inhibition at 0.01 µM was 26%.

Turning to `CCN(CC)Cc1cc(-c2ccc(OCc3ccccc3)cc2)no1` [Example 151, [3-(4-benzyloxy-phenyl)-isoxazol-5-ylmethyl]-diethyl-amine], the inhibition at 0.01 µM is 96.8%.

In the case of `OC1CCN(Cc2cc(-c3ccc(OCc4ccccc4)cc3)no2)CC1` [Example 137, 1-[3-(4-benzyloxy-phenyl)-isoxazol-5-ylmethyl]-piperidin-4-ol], the inhibition at 0.01 µM is 43.5%.

Regarding `NC(=O)OCc1cc(-c2ccc(OCc3c(Cl)cccc3Cl)cc2)no1` [Example 23, carbamic acid 3-[4-(2,6-dichlorobenzyloxy)-phenyl]-isoxazol-5-ylmethyl ester], the inhibition at 0.01 µM turned out to be 92.7%.

`Cc1cccc(COc2ccc(-c3cc(COC(N)=O)on3)cc2)c1` [Example 200, carbamic acid 3-[4-(3-methyl-benzyloxy)-phenyl]-isoxazol-5-ylmethyl ester]: the inhibition at 0.01 µM was determined as 87.6%.

Regarding `NC(=O)OCc1cc(-c2ccc(NCc3cccc(F)c3)cc2)no1` [Example 77, Carbamic acid 3-[4-(3-fluoro-benzylamino)-phenyl]-isoxazol-5-ylmethyl ester], the inhibition at 0.01 µM turned out to be 77.1%.

Turning to `NC(=O)OCc1cc(-c2ccc(NCc3c(Cl)cccc3Cl)cc2)no1` [Example 91, carbamic acid 3-[4-(2,6-dichloro-benzylamino)-phenyl]-isoxazol-5-ylmethyl ester], the inhibition at 0.01 µM amounted to 73.1%.

`CCc1nc(C)cn1Cc1cc(-c2ccc(OCc3ccccc3)cc2)no1` [Example 186, 3-(4-benzyloxy-phenyl)-5-(2-ethyl-4-methyl-imidazol-1-ylmethyl)-isoxazole]: the inhibition at 0.01 µM amounted to 51.2%.

On to `NC(=O)OCc1cc(-c2ccc(OCc3cccc(F)c3F)cc2)no1` [Example 15, carbamic acid 3-[4-(2,3-difluoro-benzyloxy)-phenyl]-isoxazol-5-ylmethyl ester], for which the inhibition at 0.01 µM stood at 96.2%.

For the molecule `Fc1ccc(COc2ccc(-c3cc(Cn4ccnc4)on3)cc2)cc1` [Example 156, 3-[4-(4-fluoro-benzyloxy)-phenyl]-5-imidazol-1-ylmethyl-isoxazole], the inhibition at 0.01 µM came out at 74.5%.

As for `Cc1ccc(CNc2ccc(-c3cc(COC(N)=O)on3)cc2)cc1` [Example 100, Carbamic acid 3-[4-(4-methyl-benzylamino)-phenyl]-isoxazol-5-ylmethyl ester], the inhibition at 0.01 µM stood at 23.7%.

Consider `OCCNCc1cc(-c2ccc(OCc3ccccc3)cc2)no1` [Example 168, 2-{[3-(4-benzyloxy-phenyl)-isoxazol-5-ylmethyl]-amino}-ethanol], for which the inhibition at 0.01 µM is 44.7%.

`O=C(OCc1cc(-c2ccc(OCc3ccccc3)cc2)no1)N1CCCC1` [Example 125, pyrrolidine-1-carboxylic acid 3-(4-benzyloxy-phenyl)-isoxazol-5-ylmethyl ester]: the inhibition at 0.01 µM turned out to be 65.8%.

For `COCCNCc1cc(-c2ccc(OCc3ccccc3)cc2)no1` [Example 174, [3-(4-benzyloxy-phenyl)-isoxazol-5-ylmethyl]-(2-methoxy-ethyl)-amine], the inhibition at 0.01 µM is 52.7%.

For the molecule `O=C(OCc1cc(-c2ccc(OCc3ccccc3)cc2)no1)N1CCCCC1` [Example 126, piperidine-1-carboxylic acid 3-(4-benzyloxy-phenyl)-isoxazol-5-ylmethyl ester], the inhibition at 0.01 µM is 48.7%.

Staying with this assay, now noted: treatment concentration 100 nM.
On to `NC(=O)OCc1cc(-c2ccc(OCc3cc(F)ccc3F)cc2)no1` [Example 197, carbamic acid 3-[4-(2,5-difluoro-benzyloxy)-phenyl]-isoxazol-5-ylmethyl ester], for which the inhibition at 0.1 µM was found to be 96.7%.

Take `NC(=O)OCc1cc(-c2ccc(OCc3ccc(C(F)(F)F)cc3)cc2)no1` [Example 202, carbamic acid 3-[4-(4-trifluoromethyl-benzyloxy)-phenyl]-isoxazol-5-ylmethyl ester]: the inhibition at 0.1 µM was determined as 95.5%.

Another assay relates to dopamine (DA) in the striatum of a MPTP-treated mouse. Kind of assay: Combined administration with Levodopa group: dopamine in the striatum of MPTP-treated mouse (HPLC). Format: in vivo. Particulars: compound 1 mg/kg PO co-administered with Levodopa group (Levodopa 50 mg/kg + Benzerazide 25 mg/kg IP); 1 hr after Levodopa. How it is done: MPTP (20 mg/kg, free base; Sigma, St. louis, Mo.) was administered to an 8 week old (20-25 g) male C57BL/6 test mouse intraperitoneally at the interval of 2 hours to construct a model.
In order to observe the effects of combined administration of a compound of the present invention and Levodopa, the compound of the present invention was dissolved in a solution containing 0.02 ml of dimethylsulfoxide (DMSO), 0.02 ml of Cremophor, 0.08 ml of polyethyleneglycol (PEG), and 0.08 ml of physiological saline. The resulting solution was orally administered at doses of 1 mg/kg one week after the MPTP treatment, and a Levodopa group containing Levodopa at 50 mg/kg and Benzerazide at 25 mg/kg was intraperitoneally administered 1 hour later.
A single administration of the Levodopa group in the following Table 4 indicates values resulting from a MPTP (toxin) treatment followed by an administration of the Levodopa group compared to the treatment results of a Levodopa single administration group of Levodopa and Benzerazide.
At 1 hour and 3 hours after administration of Levodopa, the animals were sacrificed by cervical vertebra dislocation and the brain tissues were immediately isolated from the animals. 0.5 me of iced solution for HPLC analysis (0.1 M perchloric acid and 0.1 mM EDTA) was added to a striatum obtained from the isolated brain tissues, and an ultrasonic grinder was used to prepare a tissue homogenate. The tissue homogenate was centrifuged at 12,000 rpm for 15 minutes, and its supernatant was filtered through nitrocellulose membrane filter (0.2 um, Millipore). For HPLC analysis, uBondapak™ C18 column (4.6×150 mm, particle size 10 μm: Shisheido, Japan) was used, the flow rate of the mobile phase (0.07 M monobasic sodium phosphate, 1 mM sodium octasulfonic acid, 0.1 uM EDTA, 5% acetonitrile, pH 3.2) was maintained at 0.5 me/min, and the electrode potential of the electrochemical detector (CouloChem III, ESA, Japan) was set at 350 mV.
`NCCCNC(=O)OCc1cc(-c2ccc(OCc3ccccc3)cc2)no1` [Example 130, (3-amino-propyl)-carbamic acid 3-(4-benzyloxy-phenyl)-isoxazol-5-ylmethyl ester]: the “Concentration of dopamine compared to a control group %, 1 hr” value came to 131.9%.

Still in this assay, the particulars now being: compound 1 mg/kg PO co-administered with Levodopa group (Levodopa 50 mg/kg + Benzerazide 25 mg/kg IP); 3 hr after Levodopa.
As to `NCCCNC(=O)OCc1cc(-c2ccc(OCc3ccccc3)cc2)no1` [Example 130, (3-amino-propyl)-carbamic acid 3-(4-benzyloxy-phenyl)-isoxazol-5-ylmethyl ester], the “Concentration of dopamine compared to a control group %, 3 hr” value was 77.0%.
